Data on 37 molecules can be found in patent publication US9150592B2, “Heterocyclic nuclear hormone receptor modulators” (AbbVie Inc., priority 2012, dated 2015).

Test [1] concerns the target T1, Glucocorticoid Receptor (GR) (Homo sapiens, UniProt P04150).
T1 construct: purchased Invitrogen P2893
T1 sequence (P04150 1-777): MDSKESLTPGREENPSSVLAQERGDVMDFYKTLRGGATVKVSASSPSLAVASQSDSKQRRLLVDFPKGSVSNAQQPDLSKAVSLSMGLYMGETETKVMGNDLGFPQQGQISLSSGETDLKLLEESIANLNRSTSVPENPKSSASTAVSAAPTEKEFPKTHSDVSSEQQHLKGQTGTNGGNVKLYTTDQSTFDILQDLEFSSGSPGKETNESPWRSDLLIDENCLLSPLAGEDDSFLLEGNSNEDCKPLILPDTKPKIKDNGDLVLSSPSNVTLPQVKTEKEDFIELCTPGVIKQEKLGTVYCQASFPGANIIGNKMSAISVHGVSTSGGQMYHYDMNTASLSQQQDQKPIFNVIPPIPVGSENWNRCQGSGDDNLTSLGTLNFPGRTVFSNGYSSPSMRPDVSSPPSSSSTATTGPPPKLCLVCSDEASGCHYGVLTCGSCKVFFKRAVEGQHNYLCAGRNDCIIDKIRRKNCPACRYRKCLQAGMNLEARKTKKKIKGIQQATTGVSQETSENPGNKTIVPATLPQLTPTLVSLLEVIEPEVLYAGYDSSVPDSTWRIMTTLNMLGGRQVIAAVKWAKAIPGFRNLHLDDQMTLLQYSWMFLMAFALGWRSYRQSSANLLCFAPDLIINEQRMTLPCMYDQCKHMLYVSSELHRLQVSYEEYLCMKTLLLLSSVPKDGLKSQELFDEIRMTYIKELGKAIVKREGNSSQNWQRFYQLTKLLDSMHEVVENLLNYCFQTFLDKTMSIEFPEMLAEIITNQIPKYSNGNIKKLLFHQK
In words: GR Fluorescence Polarization Assay (PolarScreen Glucocorticoid Receptor Competitor Assay, Red). The following applies: IC50 class ranges, read-out: GR binding. In a few lines:
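Competitive fluorescence-polarization assay using a red fluorescent glucocorticoid tracer with human GR in kit buffer. Compounds serially diluted 1:4 in DMSO, incubated with tracer and GR overnight at 4° C, then polarization read.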

Test [2] has as its system IL-6 in A549 cells stimulated with IL-1β. In words: A549 Cell Assay to Measure Inflammation Markers (inhibition of IL-1β-induced IL-6). The following applies: intrinsic activity, Emax class ranges; for Emax: Homo sapiens, A549, A549 Cell Assay to Measure Inflammation Markers; for A549 Emax: A549 Cell Assay to Measure Inflammation Markers. The format is cell-based. In a few lines: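 Compound pre-incubated with A549 cells 1 h at 37 °C, then stimulated with IL-1β (1 ng/mL final, 0.1% DMSO). Supernatant IL-6 quantified by MSD immunoassay after a further incubation. IC50 and Emax derived.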

By Emax is commonly meant the maximal effect, on the per cent scale that the assay sets. As to `Cc1ncccc1NC(=O)c1ccc(C2SC(C)(C)CNc3c2c(C)nn3C)c(Cl)c1` (single isomer, unassigned) [M.8, 3-chloro-N-(2-methylpyridin-3-yl)-4-(1,3,6,6-tetramethyl-4,6,7,8-tetrahydro-1H-pyrazolo[3,4-e][1,4]thiazepin-4-yl)benzamide], in test [1], the IC50 fell in the range of 1 to 10 µM. In addition, in test [2], the Emax is less than 50%.
In the case of `CN(C)c1ccc(-c2nn(C)c3c2C(c2ccc(Cl)cc2Cl)SCCN3)cc1` (centres unmarked) [D.31], the IC50 in test [1] was in the range of 1 to 10 µM. In addition, the Emax in test [2] was less than 50%.
Consider `Cn1nc(-c2ccccn2)c2c1NCCS[C@@H]2c1ccc(Br)cc1Cl` (single isomer, unassigned) [M.1, 4-(4-bromo-2-chlorophenyl)-1-methyl-3-(pyridin-2-yl)-4,6,7,8-tetrahydro-1H-pyrazolo[3,4-e][1,4]thiazepine], for which the IC50 in test [1] was 0.1 to 1 µM. The Emax in test [2] is less than 50%.
`Cc1ccc(C)c(C2SC(C)(C)CNc3c2c(C2CC2)nn3C)c1` (centres unmarked) [D.49]: the IC50 in test [1] is less than 0.1 µM. The Emax in test [2] was less than 50%.
For the molecule `Cc1cc(C#N)ccc1C1SCCNc2c1c(-c1ccccn1)nn2C` (centres unmarked) [G.8, 3-methyl-4-(1-methyl-3-(pyridin-2-yl)-4,6,7,8-tetrahydro-1H-pyrazolo[3,4-e][1,4]thiazepin-4-yl)benzonitrile], the IC50 in test [1] was less than 0.1 µM. This molecule showed an Emax in test [2] greater than 60%.
Consider `Cc1cc(Cl)ccc1[C@H]1SC(C)(C)CNc2c1c(C)nn2C` (single isomer, unassigned) [M.6], for which, in test [1], the IC50 is less than 0.1 µM. Besides, in test [2], the Emax is less than 50%.
In the case of `Cc1cc(Cl)ccc1[C@H]1S[C@H](CCO)CNc2c1c(C)nn2C` (single isomer, unassigned) [M.14, 2-[4-(4-chloro-2-methyl-phenyl)-1,3-dimethyl-4,6,7,8-tetrahydro-1H-pyrazolo[3,4-e][1,4]thiazepin-6-yl]-ethanol], in test [1], the IC50 lay within 0.1 to 1 µM. This molecule also had a maximal effect (Emax) in test [2] greater than 70%.
On to `CCn1nc(-c2ccccn2)c2c1NCCSC2c1ccc(C(=O)Nc2cccnc2Cl)cc1C` (centres unmarked) [S.10], for which, in test [1], the IC50 is less than 0.1 µM. This molecule also came in with an Emax in test [2] greater than 70%.
In the case of `Cc1cc(Cl)ccc1C1SCC(C(C)C)Nc2c1c(-c1ccccn1)nn2C` (centres unmarked) [K.3], the IC50 in test [1] was less than 0.1 µM. The maximal response (Emax) in test [2] is less than 50%.
As for `Cn1nc(C2CC2)c2c1NCC(C)(C)SC2c1ccc(Cl)cc1F` (centres unmarked) [D.53], the IC50 in test [1] was less than 0.1 µM. The same molecule gave a maximum response (Emax) in test [2] of less than 50%.
Regarding `Cc1cc(C(=O)Nc2cccnc2C)ccc1[C@H]1SCCNc2c1c(-c1ccccn1)nn2C`, the IC50 in test [1] was 0.1 to 1 µM. For the same molecule, the “A549 Emax” value in test [2] was “B (a compound with Emax>60%)”.
As for `Cn1nc(-c2ccc(F)cc2)c2c1NCCSC2c1ccc(Cl)cc1Cl` (centres unmarked) [D.94], in test [1], the IC50 was less than 0.1 µM. In test [2], the Emax is less than 50%.
In the case of `Cc1cc(Br)ccc1[C@H]1SC[C@@H](C(F)(F)F)Nc2c1c(-c1ccccn1)nn2C` (racemic), the IC50 in test [1] was less than 0.1 µM. In addition, the Emax in test [2] was less than 50%.
As for `CCn1nc(-c2ccccn2)c2c1NCCSC2c1ccc(C#N)cc1C` (single isomer, unassigned) [M.22, 3-methyl-4-(1-ethyl-3-(pyridin-2-yl)-4,6,7,8-tetrahydro-1H-pyrazolo[3,4-e][1,4]thiazepin-4-yl)benzonitrile], the IC50 in test [1] was less than 0.1 µM. The same molecule registered a maximum response (Emax) in test [2] greater than 70%.
On to `Cc1cc(S(C)(=O)=O)ccc1C1SCCNc2c1c(-c1ccccn1)nn2C` (centres unmarked), for which the IC50 in test [1] lay in the range of 0.1 to 1 µM. The molecule further returned an Emax in test [2] of less than 50%.
Regarding `Cc1cc(C(=O)Nc2cccnc2C)ccc1[C@H]1CC[C@@](O)(C(F)(F)F)Cc2c1c(-c1ccccn1)nn2C` (racemic), in test [1], the IC50 is less than 0.1 µM. Further, the maximal response (Emax) in test [2] was greater than 70%.
Consider `Cc1cc(C#N)ccc1C1SCCNc2c1c(-c1ccccn1)nn2C` (single isomer, unassigned) [M.20, 3-methyl-4-(1-methyl-3-(pyridin-2-yl)-4,6,7,8-tetrahydro-1H-pyrazolo[3,4-e][1,4]thiazepin-4-yl)benzonitrile], for which the IC50 in test [1] is less than 0.1 µM. The Emax in test [2] is greater than 70%.
Regarding `COC(=O)c1ccc(C2SCC(C)Nc3c2c(-c2ccccn2)nn3C)c(C)c1` (centres unmarked) [E.7], the IC50 in test [1] is less than 0.1 µM. Besides, the Emax in test [2] was greater than 50%.
Take `Cc1cc(Cl)ccc1C1SCCNc2nn(C)cc21` (centres unmarked) [D.13]: in test [1], the IC50 is 1 to 10 µM. The molecule further had an Emax in test [2] of less than 50%.
On to `Cc1cc(OCC(N)=O)ccc1[C@@H]1SC[C@@H](C)Nc2c1c(-c1ccccn1)nn2C` (single isomer, unassigned) [M.24, 2-(4-(1,7-dimethyl-3-(pyridin-2-yl)-4,6,7,8-tetrahydro-1H-pyrazolo[3,4-e][1,4]thiazepin-4-yl)-3-methylphenoxy)acetamide], for which, in test [1], the IC50 was less than 0.1 µM. The same molecule showed a maximum response (Emax) in test [2] greater than 70%.
For `Cn1nc(C2CCCC2)c2c1NCCSC2c1ccc(Cl)cc1Cl` (centres unmarked) [D.77], the IC50 in test [1] is less than 0.1 µM. Moreover, in test [2], the maximal response (Emax) is less than 50%.
In the same order, the values of `Cc1cc(C(=O)Nc2cccnc2C)ccc1[C@@H]1SC[C@@H](C)Nc2c1c(-c1ccncn1)nn2C` (single isomer, unassigned) [M.57, 4-(1,7-dimethyl-3-(pyrimidin-4-yl)-4,6,7,8-tetrahydro-1H-pyrazolo[3,4-e][1,4]thiazepin-4-yl)-3-methyl-N-(2-methylpyridin-3-yl)benzamide] are less than 0.1 µM and greater than 70%.
Take `Cc1cc(Cl)ccc1C1SCC(C)Nc2c1c(-c1ccccn1)nn2C` (racemic) [4-(4-chloro-2-methyl-phenyl)-1,7-dimethyl-3-(2-pyridyl)-4,6,7,8-tetrahydropyrazolo[3,4-e][1,4]thiazepine]: the IC50 in test [1] is less than 0.1 µM. In addition, in test [2], the Emax was greater than 70%.
For the molecule `Cc1cc(Br)sc1C1SCCNc2c1c(-c1ccccn1)nn2C` (centres unmarked) [D.26, 4-(5-bromo-3-methyl-2-thienyl)-1-methyl-3-(2-pyridyl)-4,6,7,8-tetrahydropyrazolo[3,4-e][1,4]thiazepine], in test [1], the IC50 is less than 0.1 µM. This molecule returned an Emax in test [2] of less than 50%.
For `Cc1cc(S(C)(=O)=O)ccc1C1SC(C)(C)CNc2c1c(C)nn2C` (centres unmarked) [D.71], in test [1], the IC50 fell in the range of 1 to 10 µM. The molecule also showed a maximal effect (Emax) in test [2] of less than 50%.
Turning to `CCn1nc(-c2ccccn2)c2c1NC(=O)CCC2c1ccc(C(=O)Nc2cccnc2C)cc1C` (centres unmarked) [O.2], the IC50 in test [1] lay in the range of 0.1 to 1 µM. The Emax in test [2] is greater than 70%.
On to `Cc1nn(CC(O)C(F)(F)F)c2c1C(c1ccc(Cl)cc1Cl)SC(C)(C)CN2` (single isomer, unassigned) [M.5, 3-(4-(2,4-dichlorophenyl)-3,6,6-trimethyl-4,6,7,8-tetrahydro-1H-pyrazolo[3,4-e][1,4]thiazepin-1-yl)-1,1,1-trifluoropropan-2-ol], for which the IC50 in test [1] lay within 1 to 10 µM. In addition, the Emax in test [2] is less than 50%.
With `Cc1nn(C)c2c1C(c1ccc(Cl)cc1Cl)[S+]([O-])C(C)(C)CN2` (centres unmarked) [L.1, 4-(2,4-dichlorophenyl)-1,3,6,6-tetramethyl-7,8-dihydro-4H-pyrazolo[3,4-e][1,4]thiazepine 5-oxide], the IC50 in test [1] was greater than 10 µM. In addition, in test [2], the maximal effect (Emax) is less than 50%.
As for `Cc1cc(Br)ccc1C1SC(C)CNc2c1c(C1CC1)nn2C` (centres unmarked) [D.52], in test [1], the IC50 is less than 0.1 µM. Further, the “A549 Emax” value in test [2] is “D (a compound with Emax<50%)”.
With `Cc1cc(Cl)ccc1C1SCCNc2c1c(C1CCCO1)nn2C` (centres unmarked) [D.72], in test [1], the IC50 lay within 0.1 to 1 µM. The maximal effect (Emax) in test [2] was less than 50%.
Regarding `CCn1nc(C2CC2)c2c1NCC(C)(C)SC2c1ccc(Cl)cc1C` (centres unmarked) [D.107], the IC50 in test [1] is less than 0.1 µM. The Emax in test [2] was less than 50%.
Regarding `COc1cc(Cl)ccc1C1SC(C)(C)CNc2c1c(C1CC1)nn2C` (centres unmarked) [D.47], the IC50 in test [1] lay in the range of 0.1 to 1 µM. This molecule also returned a maximum response (Emax) in test [2] of less than 50%.
Turning to `Cc1ccc(Br)cc1C1SC(C)(C)C=Nc2c1c(C1CC1)nn2C` (centres unmarked) [D.54], the IC50 in test [1] is 1 to 10 µM. Besides, the maximal response (Emax) in test [2] is less than 50%.
In the same order, the values of `Cn1nc(-c2ccccn2)c2c1NCCSC2c1ccc(C(=O)O)cc1Cl` (centres unmarked) are 0.1 to 1 µM and less than 50%.
As to `Cc1cc(C(=O)Nc2cccnc2C)ccc1[C@@H]1SCCNc2c1c(-c1ccccn1)nn2C`, the IC50 in test [1] was less than 0.1 µM. Moreover, the “A549 Emax” value in test [2] is “A (a compound with Emax>70%)”.
With `Cc1cc(C#N)ccc1C1SCCNc2onc(-c3ccccn3)c21` (centres unmarked) [G.9], the IC50 in test [1] is less than 0.1 µM. The molecule further showed an Emax in test [2] of less than 50%.
As for `Cn1nc(-c2ccc(Cl)cc2)c2c1NCCSC2c1ccc(Cl)cc1Cl` (centres unmarked) [D.82], in test [1], the IC50 lay within 0.1 to 1 µM. This molecule gave an Emax in test [2] of less than 50%.
